Assay results as given in patent publication US20110143332A1, “METHOD FOR IDENTIFYING MICROORGANISM OR DETECTING ITS MORPHOLOGY ALTERATION USING SURFACE ENHANCED RAMAN SCATTERING (SERS)” (NATIONAL YANG-MING UNIVERSITY, priority 2007, published 2011).
“Also recorded” adds a separate entry of the source. Bridge positions count the residues as written; N and C are the ends. Square brackets hold non-standard residues; d marks the D form. Peptide text beside a SMILES is read from it. * marks the point of attachment. Ileψ(thiazoline)Cys = CC[C@H](C)[C@H](N)C1=N[C@H](C(=O)*)CS1; dOrn = NCCC[C@@H](N)C(=O)O

Experiments:
Format in all cases: cell-based
[1] = tested on: Escherichia coli JM109(mutant); test: SERS monitoring of antibiotic effect on bacteria mounted on Ag/AAO substrate; conditions: 25 μg/ml bacitracin for 48 min; antibiotic susceptible strain; 0.5% agarose gel; FIG. 6
Procedure: (§1) Fourteen laboratory strains, Escherichia coli JM109, Escherichia coli JM109(mutant), Enterococcus faecalis 7-18 uE, Enterococcus faecium 13631, Staphylococcus aureus 13649, Staphylococcus aureus 13615, Streptococcus agalactiae 13640, Enterococcus faecalis 13641 C2, Klebsiella pneumoniae 13641 C1, Proteus mirabilis 13621 C1, Enterobacter cloacae 13457 C2, E. coli 13594 C1, E. coli 13650, Escherichia coli JM109(mutant) and E. coli 13634 were analyzed. Bacteria were grown in 5 mL of LB broth (˜6 h) to OD600=˜0.5, washed five times with PBS, and resuspended in 0.1 ml of PBS. About 3˜5 μl of the bacteria suspension is placed on the Ag/AAO substrate. 0.5% agarose gel was used to mount the bacterial samples for inhibiting the movement of bacteria. Five antibiotics: ampicillin, bacitracin, vancomycin, tetracycline and gentamycin were used in the examples. The former three could interfere with construction of the bacterial cell wall. The last two inhibited the protein synthesis in bacteria via disrupting the binding between tRNA and ribosome.
(§2) A Jobin Yvon Raman microscope (model LabRAM HR800) was used to observe the scattering excited by a 632.8 nm He—Ne laser. The spectral data acquisition time was in the 1-10 s range and the SERS spectra were obtained with a 100× microscope objective for excitation/collection. […]

[2] = tested on: Enterococcus faecalis 7-18 uE; test: SERS monitoring of antibiotic effect on drug-resistant strain; conditions: 0.5% agarose gel, FIG. 11
Procedure: as §1, §2

[3] = tested on: Escherichia coli JM109; test: SERS monitoring of antibiotic effect on bacteria mounted on Ag/AAO substrate; conditions: 10 μg/ml ampicillin for 35 min; antibiotic susceptible strain; 0.5% agarose gel; FIG. 5
Procedure: as §1, §2

[4] = tested on: E. coli 13650; test: as above; conditions: 25 μg/ml gentamycin for 37 min; antibiotic susceptible strain; 0.5% agarose gel; FIG. 10
Procedure: as §1, §2

CC[C@H](C)[C@H](N)C1=N[C@H](C(=O)N[C@@H](CC(C)C)C(=O)N[C@H](CCC(=O)O)C(=O)N[C@H](C(=O)N[C@H]2CCCCNC(=O)[C@H](CC(N)=O)NC(=O)[C@@H](CC(=O)O)NC(=O)[C@H](Cc3cnc[nH]3)NC(=O)[C@@H](Cc3ccccc3)NC(=O)[C@H]([C@@H](C)CC)NC(=O)[C@@H](CCCN)NC2=O)[C@@H](C)CC)CS1 [bacitracin] ({Ileψ(thiazoline)Cys}-L[dE]IK[dOrn]I[dF]H[dD]N; lactam 4-C)
new peak in SERS spectrum compared with no treatment [1]: 700 cm⁻¹
change of SERS spectrum (in words) ([2]; 25 μg/ml bacitracin for 48 min): No spectral changes were observed; also recorded: no changes in the spectra were observed

CC1(C)S[C@@H]2[C@H](NC(=O)[C@H](N)c3ccccc3)C(=O)N2[C@H]1C(=O)O [ampicillin]
new peak in SERS spectrum compared with no treatment [3]: 700 cm⁻¹
change of SERS spectrum (in words) ([2]; 10 μg/ml ampicillin for 35 min): No spectral changes were observed; also recorded: no changes in the spectra were observed

gentamycin
new peaks in SERS spectrum [4]: 418 cm⁻¹
